According to article PMC4774911, “Biochemical Screening of Five Protein Kinases from Plasmodium falciparum against 14,000 Cell-Active Compounds” (PLoS ONE, 2016):
Where “and” joins values, the source holds several entries; their conditions need not be identical. Identical values can stand only once.

Columns and labels:
Experiment in all cases: biochemical
LATS1 = biological target: T1, LATS1 (Homo sapiens, UniProt O95835)
T1 sequence (O95835 1-1130): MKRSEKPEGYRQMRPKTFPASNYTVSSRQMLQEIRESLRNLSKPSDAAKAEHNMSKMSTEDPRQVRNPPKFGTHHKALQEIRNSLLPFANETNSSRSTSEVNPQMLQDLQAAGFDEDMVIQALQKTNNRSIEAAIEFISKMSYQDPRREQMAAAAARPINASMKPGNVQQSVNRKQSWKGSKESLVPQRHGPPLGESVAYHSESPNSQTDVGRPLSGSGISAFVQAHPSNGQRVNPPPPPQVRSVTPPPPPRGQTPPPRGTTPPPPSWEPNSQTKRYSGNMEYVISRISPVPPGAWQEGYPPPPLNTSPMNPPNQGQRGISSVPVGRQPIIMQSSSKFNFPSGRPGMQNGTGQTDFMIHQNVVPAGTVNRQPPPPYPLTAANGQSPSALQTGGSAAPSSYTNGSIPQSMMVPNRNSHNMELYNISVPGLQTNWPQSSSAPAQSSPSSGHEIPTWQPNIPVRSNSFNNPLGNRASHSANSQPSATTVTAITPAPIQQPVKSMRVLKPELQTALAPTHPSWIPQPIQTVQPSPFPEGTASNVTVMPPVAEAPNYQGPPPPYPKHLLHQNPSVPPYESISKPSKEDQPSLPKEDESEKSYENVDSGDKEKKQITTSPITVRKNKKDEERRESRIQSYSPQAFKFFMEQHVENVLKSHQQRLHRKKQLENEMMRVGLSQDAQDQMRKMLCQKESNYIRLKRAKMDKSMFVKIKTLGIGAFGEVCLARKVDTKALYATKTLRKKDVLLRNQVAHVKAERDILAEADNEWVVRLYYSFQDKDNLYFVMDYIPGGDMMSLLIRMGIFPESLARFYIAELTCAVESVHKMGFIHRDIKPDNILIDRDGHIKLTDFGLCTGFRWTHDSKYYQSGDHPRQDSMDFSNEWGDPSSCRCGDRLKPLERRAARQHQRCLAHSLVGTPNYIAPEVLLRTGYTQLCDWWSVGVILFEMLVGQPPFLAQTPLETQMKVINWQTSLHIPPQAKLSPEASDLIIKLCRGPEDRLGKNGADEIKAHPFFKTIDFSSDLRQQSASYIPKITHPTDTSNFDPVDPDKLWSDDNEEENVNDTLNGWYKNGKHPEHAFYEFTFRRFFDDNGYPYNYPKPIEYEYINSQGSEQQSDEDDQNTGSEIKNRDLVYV

MAPK1 = MAPK1 (Homo sapiens, UniProt P28482)
Chain of MAPK1 (P28482 whole entry): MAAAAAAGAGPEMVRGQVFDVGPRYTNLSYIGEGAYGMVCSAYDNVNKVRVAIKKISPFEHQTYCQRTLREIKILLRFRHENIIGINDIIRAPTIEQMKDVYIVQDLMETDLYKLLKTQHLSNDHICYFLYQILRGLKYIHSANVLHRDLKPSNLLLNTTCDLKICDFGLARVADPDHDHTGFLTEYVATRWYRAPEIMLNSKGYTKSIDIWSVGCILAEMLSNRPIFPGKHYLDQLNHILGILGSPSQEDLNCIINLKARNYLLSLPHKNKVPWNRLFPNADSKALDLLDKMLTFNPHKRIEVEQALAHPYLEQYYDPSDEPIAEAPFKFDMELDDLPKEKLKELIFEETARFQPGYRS

STK10 = STK10 (Homo sapiens, UniProt O94804)
PAK4 = PAK4 (Homo sapiens, UniProt O96013)
MAP3K4 = MAP3K4 (Homo sapiens, UniProt Q9Y6R4)
PIK3R4 = PIK3R4 (Homo sapiens, UniProt Q99570)
Chain of PIK3R4 (Q99570 whole entry): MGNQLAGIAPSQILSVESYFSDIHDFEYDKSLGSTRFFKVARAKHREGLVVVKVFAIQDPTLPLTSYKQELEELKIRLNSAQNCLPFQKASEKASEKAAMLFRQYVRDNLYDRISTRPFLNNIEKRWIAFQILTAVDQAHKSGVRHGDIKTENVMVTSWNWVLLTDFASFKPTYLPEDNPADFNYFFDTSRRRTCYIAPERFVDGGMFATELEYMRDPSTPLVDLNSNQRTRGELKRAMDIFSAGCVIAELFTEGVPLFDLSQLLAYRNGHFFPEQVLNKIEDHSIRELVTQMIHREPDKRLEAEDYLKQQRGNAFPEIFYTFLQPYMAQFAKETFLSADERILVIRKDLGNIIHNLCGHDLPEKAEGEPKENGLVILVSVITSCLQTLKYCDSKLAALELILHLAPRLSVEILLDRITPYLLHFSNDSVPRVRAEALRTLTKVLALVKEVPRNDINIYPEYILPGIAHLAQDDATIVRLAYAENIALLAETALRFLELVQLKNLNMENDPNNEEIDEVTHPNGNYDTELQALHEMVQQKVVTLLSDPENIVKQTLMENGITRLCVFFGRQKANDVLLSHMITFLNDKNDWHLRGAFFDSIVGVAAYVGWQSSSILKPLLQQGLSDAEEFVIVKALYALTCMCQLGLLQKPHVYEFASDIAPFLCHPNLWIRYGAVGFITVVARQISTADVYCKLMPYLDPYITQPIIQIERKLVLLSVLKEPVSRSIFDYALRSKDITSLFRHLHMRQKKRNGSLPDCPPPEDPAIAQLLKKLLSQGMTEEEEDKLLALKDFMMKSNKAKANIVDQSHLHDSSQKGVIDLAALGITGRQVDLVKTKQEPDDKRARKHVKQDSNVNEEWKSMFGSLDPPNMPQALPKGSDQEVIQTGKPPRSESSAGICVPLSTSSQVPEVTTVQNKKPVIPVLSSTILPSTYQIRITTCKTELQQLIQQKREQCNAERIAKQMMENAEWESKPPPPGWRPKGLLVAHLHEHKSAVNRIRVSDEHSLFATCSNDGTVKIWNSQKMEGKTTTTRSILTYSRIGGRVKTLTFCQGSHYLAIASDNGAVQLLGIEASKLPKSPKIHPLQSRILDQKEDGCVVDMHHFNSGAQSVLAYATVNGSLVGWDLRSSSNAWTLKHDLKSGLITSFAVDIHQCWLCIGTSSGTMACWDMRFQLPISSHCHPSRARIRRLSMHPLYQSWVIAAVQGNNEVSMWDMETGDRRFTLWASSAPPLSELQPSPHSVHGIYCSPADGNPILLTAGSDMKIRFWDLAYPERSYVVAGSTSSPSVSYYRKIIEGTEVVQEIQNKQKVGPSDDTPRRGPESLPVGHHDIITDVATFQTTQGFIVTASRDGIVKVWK

SLK = SLK (Homo sapiens, UniProt Q9H2G2)
PTK2B = PTK2B (Homo sapiens, UniProt Q14289)
JAK1 = JAK1 (Homo sapiens, UniProt P23458)
ABL2 = ABL2 (Homo sapiens, UniProt P42684)
CLK1 = CLK1 (Homo sapiens, UniProt P49759)
Chain of CLK1 (P49759 whole entry): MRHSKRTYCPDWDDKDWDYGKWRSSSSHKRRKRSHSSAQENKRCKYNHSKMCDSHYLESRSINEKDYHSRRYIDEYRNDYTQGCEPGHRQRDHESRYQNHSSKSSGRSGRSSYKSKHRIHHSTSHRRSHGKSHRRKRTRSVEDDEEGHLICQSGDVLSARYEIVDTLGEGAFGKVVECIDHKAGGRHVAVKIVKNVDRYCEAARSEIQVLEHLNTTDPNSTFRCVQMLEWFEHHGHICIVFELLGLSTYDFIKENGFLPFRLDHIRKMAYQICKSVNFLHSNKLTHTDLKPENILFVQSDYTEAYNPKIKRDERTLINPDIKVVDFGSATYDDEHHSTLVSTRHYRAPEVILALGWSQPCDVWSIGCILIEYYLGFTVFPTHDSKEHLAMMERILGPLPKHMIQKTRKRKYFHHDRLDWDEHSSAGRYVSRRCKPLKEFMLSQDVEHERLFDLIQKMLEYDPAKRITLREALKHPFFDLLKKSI

SIK2 = SIK2 (Homo sapiens, UniProt Q9H0K1)
NEK9 = biological target: T2, NEK9 (Homo sapiens, UniProt Q8TD19)
T2 sequence (Q8TD19 1-979): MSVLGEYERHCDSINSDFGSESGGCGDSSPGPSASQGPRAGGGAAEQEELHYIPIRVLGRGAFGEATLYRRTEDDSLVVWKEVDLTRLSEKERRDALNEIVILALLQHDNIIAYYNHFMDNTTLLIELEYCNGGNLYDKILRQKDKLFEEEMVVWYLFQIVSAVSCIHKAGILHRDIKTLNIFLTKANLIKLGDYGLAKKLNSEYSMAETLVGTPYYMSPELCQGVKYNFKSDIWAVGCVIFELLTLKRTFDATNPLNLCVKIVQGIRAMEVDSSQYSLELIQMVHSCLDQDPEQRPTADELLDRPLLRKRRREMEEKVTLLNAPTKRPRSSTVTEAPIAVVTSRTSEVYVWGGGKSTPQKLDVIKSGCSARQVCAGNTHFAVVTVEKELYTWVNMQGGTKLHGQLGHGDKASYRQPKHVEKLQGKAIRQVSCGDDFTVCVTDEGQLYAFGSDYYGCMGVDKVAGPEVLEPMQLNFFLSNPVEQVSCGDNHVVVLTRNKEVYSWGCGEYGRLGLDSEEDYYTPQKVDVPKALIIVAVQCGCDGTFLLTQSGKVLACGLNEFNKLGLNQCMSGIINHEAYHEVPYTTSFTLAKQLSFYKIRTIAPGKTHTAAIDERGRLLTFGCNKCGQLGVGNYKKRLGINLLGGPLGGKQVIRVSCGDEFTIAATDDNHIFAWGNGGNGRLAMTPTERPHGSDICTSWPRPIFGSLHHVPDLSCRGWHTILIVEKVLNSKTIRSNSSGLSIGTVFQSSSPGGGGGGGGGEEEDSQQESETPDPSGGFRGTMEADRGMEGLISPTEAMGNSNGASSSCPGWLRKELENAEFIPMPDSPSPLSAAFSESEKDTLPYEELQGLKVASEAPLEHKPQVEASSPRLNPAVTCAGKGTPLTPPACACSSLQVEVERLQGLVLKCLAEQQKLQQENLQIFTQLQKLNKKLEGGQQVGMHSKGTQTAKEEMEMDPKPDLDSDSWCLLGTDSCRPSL

PRKCD = PRKCD (Homo sapiens, UniProt Q05655)
Chain of PRKCD (Q05655 whole entry): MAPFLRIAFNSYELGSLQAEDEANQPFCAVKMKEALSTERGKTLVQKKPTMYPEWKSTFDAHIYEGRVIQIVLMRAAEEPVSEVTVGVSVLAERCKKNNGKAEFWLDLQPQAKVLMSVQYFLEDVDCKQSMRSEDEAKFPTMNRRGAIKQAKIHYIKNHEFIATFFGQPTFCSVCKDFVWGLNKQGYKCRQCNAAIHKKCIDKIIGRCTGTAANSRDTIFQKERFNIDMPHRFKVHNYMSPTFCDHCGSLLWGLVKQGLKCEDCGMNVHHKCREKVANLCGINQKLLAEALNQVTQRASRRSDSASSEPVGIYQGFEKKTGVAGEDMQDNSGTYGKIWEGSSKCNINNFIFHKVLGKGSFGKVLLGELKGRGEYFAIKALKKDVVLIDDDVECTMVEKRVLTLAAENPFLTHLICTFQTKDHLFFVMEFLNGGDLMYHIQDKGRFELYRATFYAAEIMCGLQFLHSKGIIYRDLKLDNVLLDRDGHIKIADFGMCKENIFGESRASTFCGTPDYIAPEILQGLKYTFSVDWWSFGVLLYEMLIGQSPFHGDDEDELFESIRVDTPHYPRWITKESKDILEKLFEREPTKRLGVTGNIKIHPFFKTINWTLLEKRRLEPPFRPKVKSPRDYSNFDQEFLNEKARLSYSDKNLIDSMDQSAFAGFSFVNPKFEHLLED

PRKCB = PRKCB (Homo sapiens, UniProt P05771)
Chain of PRKCB (P05771 whole entry): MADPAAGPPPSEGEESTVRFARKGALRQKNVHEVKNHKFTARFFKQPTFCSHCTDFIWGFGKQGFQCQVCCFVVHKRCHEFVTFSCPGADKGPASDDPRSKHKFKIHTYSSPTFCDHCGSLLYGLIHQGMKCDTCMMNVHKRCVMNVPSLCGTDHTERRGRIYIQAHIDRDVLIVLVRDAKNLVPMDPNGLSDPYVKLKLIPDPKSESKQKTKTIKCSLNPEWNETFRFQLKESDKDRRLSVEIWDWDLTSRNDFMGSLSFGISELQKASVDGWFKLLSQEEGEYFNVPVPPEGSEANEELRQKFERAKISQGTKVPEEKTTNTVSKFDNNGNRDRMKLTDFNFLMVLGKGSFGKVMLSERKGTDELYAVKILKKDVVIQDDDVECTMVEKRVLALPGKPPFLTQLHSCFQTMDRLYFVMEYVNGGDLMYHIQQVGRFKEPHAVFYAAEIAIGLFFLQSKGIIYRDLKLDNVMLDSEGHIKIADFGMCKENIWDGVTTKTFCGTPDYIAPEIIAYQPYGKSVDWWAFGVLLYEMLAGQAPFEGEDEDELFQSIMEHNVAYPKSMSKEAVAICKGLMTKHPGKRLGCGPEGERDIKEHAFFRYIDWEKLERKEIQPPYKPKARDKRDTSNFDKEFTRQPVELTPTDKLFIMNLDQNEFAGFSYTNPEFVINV

MAP3K1 = MAP3K1 (Homo sapiens, UniProt Q13233)
Chain of MAP3K1 (Q13233 whole entry): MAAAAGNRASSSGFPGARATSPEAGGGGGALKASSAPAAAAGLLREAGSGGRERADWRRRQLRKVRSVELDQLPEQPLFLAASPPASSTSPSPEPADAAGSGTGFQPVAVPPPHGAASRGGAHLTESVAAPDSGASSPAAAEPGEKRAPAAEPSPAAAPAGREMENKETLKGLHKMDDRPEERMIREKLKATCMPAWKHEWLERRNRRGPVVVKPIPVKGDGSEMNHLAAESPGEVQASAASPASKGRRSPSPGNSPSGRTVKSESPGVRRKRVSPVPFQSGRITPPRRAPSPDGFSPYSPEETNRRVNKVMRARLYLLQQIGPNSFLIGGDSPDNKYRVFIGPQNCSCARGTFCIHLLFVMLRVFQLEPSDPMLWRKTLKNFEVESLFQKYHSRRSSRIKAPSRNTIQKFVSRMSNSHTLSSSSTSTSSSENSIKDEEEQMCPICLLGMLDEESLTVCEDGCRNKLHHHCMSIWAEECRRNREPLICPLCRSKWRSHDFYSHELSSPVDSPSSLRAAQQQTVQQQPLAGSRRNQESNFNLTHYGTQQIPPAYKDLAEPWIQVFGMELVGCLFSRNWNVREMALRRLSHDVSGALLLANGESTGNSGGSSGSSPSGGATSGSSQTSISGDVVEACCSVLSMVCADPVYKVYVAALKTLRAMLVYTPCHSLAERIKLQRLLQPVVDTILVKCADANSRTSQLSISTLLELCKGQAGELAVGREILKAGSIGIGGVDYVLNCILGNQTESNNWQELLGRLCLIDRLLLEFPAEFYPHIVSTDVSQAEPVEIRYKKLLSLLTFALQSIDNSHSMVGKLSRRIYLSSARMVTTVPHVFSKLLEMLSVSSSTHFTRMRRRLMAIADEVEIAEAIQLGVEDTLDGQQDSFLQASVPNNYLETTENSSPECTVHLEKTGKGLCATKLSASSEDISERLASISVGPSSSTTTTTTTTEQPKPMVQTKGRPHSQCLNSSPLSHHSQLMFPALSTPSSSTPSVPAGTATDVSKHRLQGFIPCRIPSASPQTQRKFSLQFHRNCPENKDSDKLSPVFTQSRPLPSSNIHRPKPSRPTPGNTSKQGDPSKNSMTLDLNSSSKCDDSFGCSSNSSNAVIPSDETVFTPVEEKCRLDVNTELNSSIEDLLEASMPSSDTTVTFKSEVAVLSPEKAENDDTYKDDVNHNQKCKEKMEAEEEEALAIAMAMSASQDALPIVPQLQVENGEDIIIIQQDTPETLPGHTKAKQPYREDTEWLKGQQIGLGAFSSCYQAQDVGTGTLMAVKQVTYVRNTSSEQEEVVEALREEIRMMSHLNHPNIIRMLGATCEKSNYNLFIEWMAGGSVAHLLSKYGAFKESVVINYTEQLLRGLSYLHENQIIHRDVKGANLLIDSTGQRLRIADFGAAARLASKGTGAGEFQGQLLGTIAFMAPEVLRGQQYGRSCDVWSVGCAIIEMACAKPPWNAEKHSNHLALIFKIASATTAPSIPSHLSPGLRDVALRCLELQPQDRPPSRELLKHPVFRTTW

Compound	IC50 (LATS1) [nM]	IC50 (MAPK1) [nM]	IC50 (STK10)	IC50 (PAK4)	IC50 (MAP3K4)	IC50 (PIK3R4) [nM]	IC50 (SLK)	IC50 (PTK2B)	IC50 (JAK1)	IC50 (ABL2)	IC50 (CLK1)	IC50 (SIK2)	IC50 (NEK9)	IC50 (PRKCD) [nM]	IC50 (PRKCB)	IC50 (MAP3K1) [nM]
CN(C)CC(O)COc1ccc(Nc2ncc([N+](=O)[O-])c(Nc3ccccc3O)n2)cc1.O=C(O)C(F)(F)F (stereo not drawn) [TCMDC-141399]	> 20000	> 20000	6300 nM	9000 nM and 6800 nM	840 nM	> 20000	890 nM and 1000 nM	350 nM and 480 nM	1100 nM and 1400 nM	4200 nM	390 nM and 270 nM	> 20000 nM	> 20000 nM	> 20000	> 20000 nM	> 20000
Cl.NCC1(c2nc(-c3ccc(Cl)c(O)c3)c(-c3ccncc3)[nH]2)CCCCC1 [TCMDC-141154]	1100	> 20000	57 nM	9100 nM and > 20000 nM	> 20000 nM	> 20000	≤ 32 nM	> 20000 nM	> 20000 nM	490 nM and 400 nM	> 20000 nM	570 nM and 530 nM	> 20000 nM	1000	12000 nM and 5900 nM	> 20000
CN1CCN(c2ccc(Nc3ncc(C#N)c(Nc4ccccc4C(N)=O)n3)cc2)CC1.Cl [TCMDC-134116]	210	> 20000	48 nM and 93 nM	380 nM and 420 nM	39 nM and 51 nM	2200	48 nM and 57 nM	77 nM and 97 nM	53 nM and 79 nM	200 nM and 160 nM	47 nM and 48 nM	≤ 32 nM and 35 nM	770 nM and 580 nM	850	870 nM	1600
